Laboratory results reported in article PMC10891539, “Plant Extracts and Phytochemicals from the Asteraceae Family with Antiviral Properties” (Molecules, 2024).
Read-outs that look alike come from different tables or passages of the source.

Legend:
[1] = test system: DENV-2; experiment: Antiviral activity, virus yield inhibition assay (plaque assay) against DENV-2 in Vero cells; type: cell-based, dengue virus (DENV-2 strain NGC); details: for activity against DENV-2 (in words): DENV-2 in Vero cells
Method: Figure 3 Antiviral activity of dichloromethane (A) and methanolic extracts (B) and against DENV-2 in Vero cells. Cells were infected with DENV-2 (m.o.i. 0.1 PFU/cell) and, after 1 h adsorption at 37 °C, were treated with medium containing different dilutions of the dichloromethane extracts or vehicle. After 48h of infection, viral yield was determined via plaque assay. […] Results are expressed as the mean values ± standard deviation (SD).
Figure 4 Antiviral activity of pure compounds against DENV-2 in Vero cells. Cells were infected with DENV-2 (m.o.i. 0.1 PFU/cell) and, after 1 h adsorption at 37 °C, were treated with medium containing different dilutions of the pure compounds or vehicle (dimethyl sulfoxide). After 48 h of infection, viral yield was determined via plaque assay. Results are expressed as the mean values ± standard deviation (SD).
(§1) Vero (African green monkey kidney, ATCC CCL-81) cells were grown in Eagle’s minimum essential medium (MEM, Gibco™ Thermo Fisher Scientific, Waltham, MA, USA) supplemented with 5% heat-inactivated newborn bovine serum (NBS, Gibco™ Thermo Fisher Scientific, Carlsbad, CA, USA) and 1.5 g/L of sodium bicarbonate in a 5% CO2 atmosphere. For the maintenance medium (MM), the serum concentration was reduced to 1.5%. The C6/36 HT mosquito cell line from Aedes albopictus (ATCC CRL-1660), adapted to grow at 33 °C, was cultured in L-15 Medium (Leibovitz) supplemented with 0.3% tryptose phosphate broth, 0.02% glutamine, 1% MEM non-essential amino acids solution, and 5% FBS. The original stock of DENV-2 strain NGC was prepared in C6/36 cells and titrated via plaque formation in Vero cells.
Antiviral activity was evaluated with a virus yield inhibition assay. Cells grown in 24-well microplates were infected with DENV-2 at a multiplicity of infection (m.o.i.) of 0.1 PFU/cell, and after 1 h adsorption at 37 °C, the unadsorbed virus was removed by washing with PBS and refed with MM containing different two-fold dilutions of each compound or vehicle (DMSO or methanol). […] The concentration of the solvent used for the control was the maximum present in the highest concentration of the extract or compound evaluated. After 48 h of infection, supernatants were collected and cooled down, and serial dilutions were prepared to infect Vero cell monolayers to measure virus yield via the PFU method. After viral adsorption for 1 h at 37 °C, the virus excess was removed; MM supplemented with 0.7% methylcellulose was added and cells were incubated for 1 week at 37 °C in a 5% CO2 incubator. Finally, cell monolayers were fixed with 10% formaldehyde, washed, and stained with a 1% solution of crystal violet, and PFU were counted. Inhibition values (% respect to viral control): The effective concentration 50% (EC50), as the concentration required to reduce virus yield by 50% in the compound-treated cultures, was calculated via non-linear regression using GraphPad Prism (v9.0) software, compared with viral control treated with vehicle (DMSO or methanol), and presented as the mean ± SD obtained from three independent experiments.

[2] = Cytotoxicity assay (MTT) on Vero cells; type: cell-based; details: African green monkey
Method: as §1
Confluent cell monolayers in 96-well plates were exposed for 48 h to serial two-fold compound dilutions, four wells for each concentration, and then viability was tested. The concentration range evaluated for extracts was 1–250 µg/mL, and for pure compounds, it was 1–200 µM or 1–100 µM depending on the phytochemical. […] Cell cultures treated with 0.01% concentration of vehicle (DMSO or methanol) were taken as cell control. Cell viability determinations were performed by the 3-(4,5-dimethylthiazol-2-yl)-2,5-diphenyl tetrazolium bromide (MTT, Sigma-Aldrich, St. Louis, MO, USA) method, adding 10 µL of MM containing MTT reagent (final concentration 0.5 mg/mL) to each well. After 2 h of incubation at 37 °C, the supernatants were removed, 100 µL of ethanol was added per well to solubilize the formazan crystals, and absorbance was measured at 595 nm. Viability values (% respect to cell control): The cytotoxic concentration 50% (CC50) was calculated via non-linear regression using GraphPad Prism (v9.0.) software as the compound concentration required to reduce the MTT signal by 50% compared to cell controls treated with vehicle (DMSO or methanol), and it is presented as the mean ± standard deviation (SD) obtained from three independent experiments.

[3] = test system: human cancer cell lines; design: method as in PMID 32805622; details: cited from earlier work
[4] = pure phytochemicals, Vero cells, 48 h, MTT, mean of three determinations ± SD, read-out: CC50
[5] = Dengue virus, DENV2, Vero, 48 h, pure phytochemicals, concentration reducing DENV-2 yield by 50%, Vero cells, m.o.i. 0.1, 48 h, mean of three ± SD
[6] = Vero cells (confluent monolayers), pure phytochemicals, Vero cells, 48 h, MTT, mean of three determinations ± SD, read-out: CC50
[7] = pure phytochemicals, concentration reducing DENV-2 yield by 50%, Vero cells, m.o.i. 0.1, 48 h, mean of three ± SD

Compound	EC50 [1, 5]	CC50 at 48 h [2, 6]	further results
C=C1C(=O)O[C@H]2C[C@]3(C)O[C@@H]3[C@@H]3O[C@@H]3C3=C[C@@H](OC3=O)[C@H]12 [Compound 1, mikanolide]			EC50 ([1]; Dengue virus, DENV2, Vero, 48 h): > 2 µM; CC50 [2]: 6.69 ± 0.49 µM
C=C1C(=O)O[C@@H]2/C=C(\C)CC/C=C(\C)C[C@@H](OC(=O)/C(=C/CO)CO)[C@@H]12 [Compound 2, eupatoriopicrin]			EC50 ([1]; Dengue virus, DENV2, pure phytochemicals, concentration reducing DENV-2 yield by 50%, Vero cells, m.o.i. 0.1, 48 h, mean of three ± SD, read-out: EC50): > 2 µM; CC50 [2, 4]: 10.8 ± 0.88 µM
C=C1C(=O)O[C@@H]2[C@H]3C(C)=CC[C@H]3C(=C)C[C@@H](OC(=O)/C(=C/CO)CO)[C@@H]12 [Compound 3, eupahakonenin B]	> 2 µM	11.2 ± 0.36 µM	
C=C1C(=O)O[C@@H]2/C=C(\CO)CC/C=C(\COC(C)=O)C[C@H](OC(C)=O)[C@@H]12 [Compound 4, minimolide]	> 2 µM	10.6 ± 0.55 µM	
C=C1C(=O)OC2C1CCC(=C)C1CC3OC3(C)C12 (centres unmarked) [Compound 5, estafietin]	> 2 µM	23.5 ± 0.99 µM	
C=C1CC[C@H]2C(=C)C(=O)O[C@@H]2[C@H]2C(C)=CC(=O)[C@@H]12 [Compound 6, 2-oxo-8-deoxyligustrin]	3.7 µM	21.8 ± 4.15 µM	EC50 [1, 7]: 3.72 ± 0.28 µM
C=C1C(=O)O[C@@H]2/C=C(\C)[C@@H](O)C/C=C(\C)C[C@@H](OC(=O)/C(=C/CO)COC(C)=O)[C@@H]12 [Compound 7, santhemoidin C]	3.1 µM	21 ± 3.65 µM	EC50 [1, 7]: 3.12 ± 1.39 µM
C=C(C)c1cc2cc(C(C)=O)c(O)cc2o1 [Compound 8, euparin]	6.8 µM		EC50 [1, 7]: 6.81 ± 0.2 µM; CC50 at 48 h [2, 4]: > 500 µM
COc1cc(-c2oc3cc(O)c(OC)c(O)c3c(=O)c2OC)ccc1O [Compound 9, jaceidin]	> 2 µM	> 100 µM	
COc1c(O)cc2oc(-c3ccc(O)c(O)c3)cc(=O)c2c1O [Compound 10, nepetin]	> 2 µM		activity against DENV-2 (in words) [1]: inactive; CC50 at 48 h [2]: > 100 µM
COc1cc(-c2cc(=O)c3c(O)c(OC)c(O)cc3o2)ccc1O [Compound 11, jaceosidin]	> 2 µM	> 100 µM	activity against DENV-2 (in words) [1]: inactive
O=C1C[C@@H](c2ccc(O)c(O)c2)Oc2cc(O)cc(O)c21 [Compound 12, eryodictiol]	> 2 µM	> 100 µM	
COc1ccc(-c2cc(=O)c3c(O)c(OC)c(OC)cc3o2)cc1O [Compound 13, eupatorin]	> 2 µM		CC50 [2, 4]: > 200 µM
COc1ccc(-c2cc(=O)c3c(O)c(OC)c(OC)cc3o2)cc1OC [Compound 14, 5-demethylsinensetin]	> 2 µM	184 ± 27.8 µM	
macrocephalide A			50% cell growth inhibitions [3]: 0.576 µM
macrocephalide B			50% cell growth inhibitions [3]: 6.37 µM
